In patent US9181193B2, “Indenoquinolone compound, preparation method and use thereof” (Second Military Medical University, PLA, priority 2010, dated 2015):

Tests used:
Type in all cases: cell-based
[1] = tested on: MDA-MB-435 (human breast cancer cells); assay: MTT in vitro anti-tumor activity test, MDA-MB-435; settings: MTT assay, MDA-MB-435 cells; for MDA-MB-435 IC50: 72 h incubation; for MDA-MB-435 100 μg/mL IC %: inhibition at 100 μg/mL, 72 h
[2] = tested on: HepG2 (human hepatoma cells); assay: MTT in vitro anti-tumor activity test, HepG2; settings: MTT assay, HepG2 cells; for HepG2 IC50: 72 h incubation; for HepG2 100 μg/mL IC %: inhibition at 100 μg/mL, 72 h
[3] = tested on: Colo205 (human colon cancer cells); assay: MTT in vitro anti-tumor activity test, Colo205; settings: MTT assay, Colo205 cells; for Colo205 IC50: 72 h incubation; for Colo205 100 μg/mL IC %: inhibition at 100 μg/mL, 72 h
[4] = tested on: A549 (human lung cancer cells); assay: MTT in vitro anti-tumor activity test, A549; settings: MTT assay, A549 cells; for A549 IC50: 72 h incubation; for A549 100 μg/mL IC %: inhibition at 100 μg/mL, 72 h

In the case of `O=C1c2cc(Cl)ccc2-c2c1c1ccccc1n(CCn1ccnc1)c2=O` [Compound 38], the “MDA-MB-435 IC50” value [1] is reported as 9.37 µg/mL, the “MDA-MB-435 100 μg/mL IC %” value [1] is reported as 100% and the “HepG2 IC50” value [2] is reported as 22.97 µg/mL. For the same compound, the “HepG2 100 μg/mL IC %” value [2] was 88.62%, the “Colo205 IC50” value [3] was 18.77 µg/mL and the “Colo205 100 μg/mL IC %” value [3] was 95.16%. For the same compound, the “A549 IC50” value [4] was 13.16 µg/mL and the “A549 100 μg/mL IC %” value [4] was 100%.

`O=C1c2cc(Cl)ccc2-c2c1c1ccccc1n(CCN1CCCCC1)c2=O` [Compound 39] was tested, and the “MDA-MB-435 IC50” value [1] was over 100 µg/mL, the “MDA-MB-435 100 μg/mL IC %” value [1] was 14.88% and the “HepG2 IC50” value [2] was over 100 µg/mL. The “HepG2 100 μg/mL IC %” value [2] was 22.39%, the “Colo205 IC50” value [3] was over 100 µg/mL and the “Colo205 100 μg/mL IC %” value [3] was 13.12%. The “A549 IC50” value [4] was over 100 µg/mL and the “A549 100 μg/mL IC %” value [4] was 47.81%.

For `CN(C)CCCn1c(=O)c2c(c3ccccc31)C(=O)c1cc(Cl)ccc1-2` [Compound 40], the “MDA-MB-435 IC50” value [1] was 1.52 µg/mL, the “MDA-MB-435 100 μg/mL IC %” value [1] was 100% and the “HepG2 IC50” value [2] was 11.51 µg/mL. The “HepG2 100 μg/mL IC %” value [2] was 100%, the “Colo205 IC50” value [3] was 3.16 µg/mL and the “Colo205 100 μg/mL IC %” value [3] was 100%. The “A549 IC50” value [4] was 3.25 µg/mL and the “A549 100 μg/mL IC %” value [4] was 86.70%.

With `COc1ccc2c(c1)C(=O)c1c-2c(=O)n(CCN(C)C)c2ccc(OC)cc12` [Compound 41] the “MDA-MB-435 IC50” value [1] was 0.703 µg/mL, the “MDA-MB-435 100 μg/mL IC %” value [1] was 77.77% and the “HepG2 IC50” value [2] was 3.36 µg/mL. The “HepG2 100 μg/mL IC %” value [2] was 85.01%, the “Colo205 IC50” value [3] was 0.632 µg/mL and the “Colo205 100 μg/mL IC %” value [3] was 83.62%. For the same compound, the “A549 IC50” value [4] was “≈100 μg/mL” and the “A549 100 μg/mL IC %” value [4] was 49.27%.

`COc1ccc2c(c1)-c1c(c3cc(OC)ccc3n(CCN(C)C)c1=O)C2=O` [Compound 42] was tested, and the “MDA-MB-435 IC50” value [1] was 3.12 µg/mL, the “MDA-MB-435 100 μg/mL IC %” value [1] was 100% and the “HepG2 IC50” value [2] was 3.77 µg/mL. For the same compound, the “HepG2 100 μg/mL IC %” value [2] was 100%, the “Colo205 IC50” value [3] was 1.27 µg/mL and the “Colo205 100 μg/mL IC %” value [3] was 100%. For the same compound, the “A549 IC50” value [4] was 8.03 µg/mL and the “A549 100 μg/mL IC %” value [4] was 87.75%.

With `COc1ccc2c(c1)c1c(c(=O)n2CCn2ccnc2)-c2ccc(Br)cc2C1=O` [Compound 43] the “MDA-MB-435 IC50” value [1] was 83.60 µg/mL, the “MDA-MB-435 100 μg/mL IC %” value [1] was 53.07% and the “HepG2 IC50” value [2] was over 100 µg/mL. For the same compound, the “HepG2 100 μg/mL IC %” value [2] was 9.73%, the “Colo205 IC50” value [3] was 34.21 µg/mL and the “Colo205 100 μg/mL IC %” value [3] was 87.42%. The “A549 IC50” value [4] was over 100 µg/mL and the “A549 100 μg/mL IC %” value [4] was 4.26%.

`COc1ccc2c(c1)C(=O)c1c-2c(=O)n(CCN2CCCC2)c2cc(OC)c(OC)cc12` [Compound 44] was tested, and the “MDA-MB-435 IC50” value [1] was 0.014 µg/mL, the “MDA-MB-435 100 μg/mL IC %” value [1] was 78.20% and the “HepG2 IC50” value [2] was 1.93 µg/mL. For the same compound, the “HepG2 100 μg/mL IC %” value [2] was 84.59%, the “Colo205 IC50” value [3] was 0.346 µg/mL and the “Colo205 100 μg/mL IC %” value [3] was 92.66%. For the same compound, the “A549 IC50” value [4] was 1.42 µg/mL and the “A549 100 μg/mL IC %” value [4] was 94.74%.

`COc1ccc2c(c1)C(=O)c1c-2c(=O)n(CCN2CCOCC2)c2cc(OC)c(OC)cc12` [Compound 45] was tested, and the “MDA-MB-435 IC50” value [1] was 7.86 µg/mL, the “MDA-MB-435 100 μg/mL IC %” value [1] was 72.95% and the “HepG2 IC50” value [2] was 6.27 µg/mL. The “HepG2 100 μg/mL IC %” value [2] was 84.31%, the “Colo205 IC50” value [3] was 16.76 µg/mL and the “Colo205 100 μg/mL IC %” value [3] was 66.89%. The “A549 IC50” value [4] was 37.85 µg/mL and the “A549 100 μg/mL IC %” value [4] was 62.84%.

In the case of `COc1cc2c3c(c(=O)n(CCN(C)C)c2cc1OC)-c1ccc(Cl)cc1C3=O` [Compound 47], the “MDA-MB-435 IC50” value [1] is reported as 5.30 µg/mL, the “MDA-MB-435 100 μg/mL IC %” value [1] is reported as 100% and the “HepG2 IC50” value [2] is reported as 8.33 µg/mL. The “HepG2 100 μg/mL IC %” value [2] was 64.50%, the “Colo205 IC50” value [3] was 1.66 µg/mL and the “Colo205 100 μg/mL IC %” value [3] was 88.74%. For the same compound, the “A549 IC50” value [4] was 10.60 µg/mL and the “A549 100 μg/mL IC %” value [4] was 87.20%.

For `COc1cc2c3c(c(=O)n(CCn4ccnc4)c2cc1OC)-c1ccc(Cl)cc1C3=O` [Compound 48], the “MDA-MB-435 IC50” value [1] was 12.36 µg/mL, the “MDA-MB-435 100 μg/mL IC %” value [1] was 100% and the “HepG2 IC50” value [2] was 60.46 µg/mL. The “HepG2 100 μg/mL IC %” value [2] was 62.67%, the “Colo205 IC50” value [3] was 11.75 µg/mL and the “Colo205 100 μg/mL IC %” value [3] was 89.59%. For the same compound, the “A549 IC50” value [4] was 23.76 µg/mL and the “A549 100 μg/mL IC %” value [4] was 79.61%.

For `COc1cc2c3c(c(=O)n(CCN4CCOCC4)c2cc1OC)-c1ccc(Cl)cc1C3=O` [Compound 49], the “MDA-MB-435 IC50” value [1] was over 100 µg/mL, the “MDA-MB-435 100 μg/mL IC %” value [1] was 48.01% and the “HepG2 IC50” value [2] was 21.05 µg/mL. For the same compound, the “HepG2 100 μg/mL IC %” value [2] was 59.34%, the “Colo205 IC50” value [3] was 69.03 µg/mL and the “Colo205 100 μg/mL IC %” value [3] was 50.06%. The “A549 IC50” value [4] was over 100 µg/mL and the “A549 100 μg/mL IC %” value [4] was 28.48%.

In the case of `COc1cc2c3c(c(=O)n(CCCN(C)C)c2cc1OC)-c1ccc(Cl)cc1C3=O` [Compound 50], the “MDA-MB-435 IC50” value [1] is reported as 1.12 µg/mL, the “MDA-MB-435 100 μg/mL IC %” value [1] is reported as 89.80% and the “HepG2 IC50” value [2] is reported as 3.71 µg/mL. The “HepG2 100 μg/mL IC %” value [2] was 36.98%, the “Colo205 IC50” value [3] was 15.89 µg/mL and the “Colo205 100 μg/mL IC %” value [3] was 76.93%. The “A549 IC50” value [4] was 3.59 µg/mL and the “A549 100 μg/mL IC %” value [4] was 85.91%.
